Molecular target: T1, MbAhpC (Mycobacterium tuberculosis, UniProt P9WQB7)
T1 construct: gene ahpC
Settings: read-out: K m ± SD

T1 sequence (P9WQB7 whole entry): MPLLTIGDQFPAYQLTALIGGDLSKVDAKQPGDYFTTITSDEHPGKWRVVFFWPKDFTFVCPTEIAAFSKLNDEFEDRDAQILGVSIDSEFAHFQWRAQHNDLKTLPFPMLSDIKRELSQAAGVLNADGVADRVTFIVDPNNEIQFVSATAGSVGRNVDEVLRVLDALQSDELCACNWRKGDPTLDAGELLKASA

Compound: CC(C)(C)OO [tert-butyl hydroperoxide]
- Km: 2.23 ± 0.49 µM

Source: PMC5505994 (Scientific Reports, 2017)
